Values quoted from earlier work as cited in patent US11446297B2, “Methods for treating hemolytic diseases and sickle cell disease” (Purdue Research, priority 2015, dated 2022).

Molecular target: Syk (Homo sapiens, UniProt P43405)
Settings: first IC column; kinase assay; Inactive@ 80 μM (r14)

COc1ccc2c(c1)c(/C=C1\C(=O)Nc3ccc(S(=O)(=O)N(C)C)cc31)cn2C [Compd 6]
IC@ (result in words): Inactive@
